Assay results as given in patent publication US12012467B2, “Small molecule DCN1 inhibitors and therapeutic methods using the same” (THE REGENTS OF THE UNIVERSITY OF MICHIGAN, priority 2017, dated 2024).
Where two headings read alike, the source gives them in different places. Square brackets hold non-standard residues; d marks the D form. Peptide text beside a SMILES is read from it. * marks the point of attachment. Ala(6-iPr-benzothiazol-2-yl) = CC(C)c1ccc2nc(C[C@H](N)C(=O)O)sc2c1; Gly(piperidin-4-yl) = N[C@H](C(=O)O)C1CCNCC1; 2Nal = N[C@@H](Cc1ccc2ccccc2c1)C(=O)O; Gly(4-THP) = N[C@H](C(=O)O)C1CCOCC1; NHPhenethyl = c1ccc(CCN*)cc1; Isovaleryl = CC(C)CC(=O)*; Abu = CC[C@H](N)C(=O)O; Propionyl = CCC(=O)*; Moc = COC(=O)*

Target: DCN1 (Homo sapiens (Human), UniProt Q96GG9)
Assay: Competitive FP binding assay
Outline: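 FP competition with DCN1 in 100 mM phosphate pH 6.5, 0.02% Tween-20, 2% DMSO, probe 5 nM final. Equilibrated 30 min at room temperature with shaking. DCN1 was His6-tagged (uncleaved), expressed in E. coli Rosetta2 and purified by Ni-NTA and gel filtration.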

[1] = read-out: Binding affinity to DCN1 (IC50 (nM))
[2] = bounds given in μM, read-out: Binding affinity to DCN1 (IC50)

DCN1, sequence (Q96GG9 58-259): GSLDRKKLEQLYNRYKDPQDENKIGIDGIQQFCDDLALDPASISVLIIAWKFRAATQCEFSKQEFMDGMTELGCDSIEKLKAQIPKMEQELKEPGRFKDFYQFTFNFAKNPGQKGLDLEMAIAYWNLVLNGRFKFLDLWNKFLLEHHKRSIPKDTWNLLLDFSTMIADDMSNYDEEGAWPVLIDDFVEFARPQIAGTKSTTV

Row | Compound | IC50 [1] | IC50 [2]
1 | CCC(=O)N[C@@H](Cc1nc2ccc(Cl)cc2s1)C(=O)N[C@H](C(=O)N[C@@H](CCCCN)C(=O)N[C@@H]1CCOc2cc(Cl)ccc21)C1CCCC1 [Example 171] | 168 nM | 
2 | CCC(=O)N[C@@H](Cc1ccc2ccccc2c1)C(=O)N[C@@H](Cc1cccs1)C(=O)N[C@@H](CCCCN)C(=O)NC(c1ccccc1)c1ccccc1 [Example 24] | 967 nM | 
3 | CCC(=O)N[C@@H](Cc1nc2ccc(C(C)C)cc2s1)C(=O)N[C@H](CNC(=O)C1CCN(CC)CC1)C1CCCCC1 [Example 70] | 45.1 nM | 
4 | CCC(=O)N[C@@H](Cc1ccc2ccccc2c1)C(=O)N[C@H](C(=O)N[C@@H](CCCCN)C(=O)N[C@H]1CCc2ccccc21)[C@@H](C)CC [Example 14] | 1930 nM | 
5 | CCC(=O)N[C@@H](Cc1nc2ccc(C(C)C)cc2s1)C(=O)N[C@H](CNC(=O)C1CCN(C(C)C)CC1)C1CCCCC1 [Example 71] | 110 nM | 
6 | CCC(=O)N[C@@H](Cc1nc2ccc(C(C)C)cc2s1)C(=O)N[C@H](CNC(=O)C1CCN(CCF)CC1)C1CCCCC1 [Example 74] | 112 nM | 
7 | CCC(=O)N[C@@H](Cc1nc2ccc(C(C)C)cc2s1)C(=O)N[C@H](CNC(=O)C1CNC1)C1CCCCC1 [Example 68] | 66.6 nM | 
8 | CCC(=O)N[C@@H](Cc1nc2ccc(C(C)C)cc2s1)C(=O)N[C@@H](CNC(=O)CCN1CCOCC1)Cc1ccccc1 (stereo in doubt) [Example 94] |  | > 10000 nM
9 | CCC(=O)N[C@@H](Cc1ccc2ccccc2c1)C(=O)N[C@H](C(=O)N[C@@H](CCCCN)C(=O)N[C@H]1CCOc2ccccc21)[C@@H](C)CC [Example 18] | 3050 nM | 
10 | CCC(=O)N[C@@H](Cc1ccc2ccccc2c1)C(=O)N[C@H](C(=O)N[C@@H](CCCCN)C(=O)N[C@@H]1CCOc2ccccc21)C1CCCC1 [Example 149] | 378 nM | 
11 | CCC(=O)N[C@@H](Cc1nc2ccc(Cl)cc2s1)C(=O)N[C@H](CN)Cc1ccccc1 [Example 86] | 491 nM | 
12 | CC[C@H](C)[C@H](NC(=O)[C@H](Cc1nc2ccc(Cl)cc2s1)NC(C)=O)C(=O)N[C@@H](CCCCN)C(=O)N[C@@H](CC(C)C)C(N)=O [Example 4, (S)-2-((2S,3 S)-2-((S)-2-acetamido-3-(6-chlorobenzo[d]thiazol-2-yl)propanamido)-3-methylpentanamido)-6-amino-N—((S)-1-amino-4-methyl-1-oxopentan-2-yl)hexanamide] | 116 nM | 
13 | CCC(=O)N[C@@H](Cc1nc2ccc(C(C)C)cc2s1)C(=O)NC(CSc1nncn1C)C1CCCCC1 (stereo partly shown) [Example 84] | 242 nM | 
14 | CCC(=O)N[C@@H](Cc1nc2ccc(Cl)cc2s1)C(=O)N[C@H](C(=O)N[C@@H](CCCCN)C(=O)N[C@@H]1CCOc2ccccc21)C1CCOCC1 [Example 37] | 49 nM | 
15 | CC[C@H](C)[C@H](NC(=O)[C@H](Cc1ccc2ccccc2c1)NC(=O)OC)C(=O)N[C@@H](CCCCN)C(=O)N[C@@H](CC(C)C)C(N)=O [Example 170] (Moc-[2Nal]IKL-NH2) |  | > 10000 nM
16 | CCC(=O)N[C@H](Cc1nc2ccc(Cl)cc2s1)C(=O)N[C@H](C(=O)N[C@@H](CCCCN)C(=O)N[C@@H]1CNCc2ccccc21)C1CCOCC1 [Example 44] |  | > 1000 nM
17 | CC[C@H](C)[C@@H](CN)NC(=O)[C@H](Cc1nc2ccc(C(C)C)cc2s1)NC(=O)NC [Example 52, (S)—N-((2S,3S)-1-amino-3-methylpentan-2-yl)-3-(6-isopropylbenzo[d]thiazol-2-yl)-2-(3-methylureido)propanamide] | 558 ± 125 nM | 
18 | CCC(=O)N[C@@H](Cc1cn2cc(Cl)ccc2n1)C(=O)N[C@H](CN)Cc1ccccc1 [Example 108] | 4170 nM | 
19 | CCC(=O)N[C@@H](Cc1nc2ccc(Cl)cc2s1)C(=O)N[C@H](C(=O)N[C@@H](CCCCN(C)C)C(=O)N[C@@H]1CCOc2ccccc21)C1CCCC1 [Example 34] | 17.9 nM | 
20 | CC[C@H](C)[C@@H](CN)NC(=O)[C@@H](N)Cc1nc2ccc(C(C)C)cc2s1 [Example 49, (S)-2-amino-N-((2S,3S)-1-amino-3-methylpentan-2-yl)-3-(6-isopropylbenzo[d]thiazol-2-yl)propanamide] |  | > 10000 nM
21 | CCC(=O)N[C@@H](Cc1ccc2ccccc2c1)C(=O)N[C@H](C(=O)N[C@@H](CCCCN)C(=O)NCCc1ccccc1)[C@@H](C)CC [Example 11] (Propionyl-[2Nal]-Ile-Lys-NHPhenethyl) |  | > 10000 nM
22 | CCC(=O)N[C@@H](Cc1nc2ccc(C(C)C)cc2s1)C(=O)N[C@H](CNC(=O)C1CCNCC1)C1CCCCC1 [Example 62, N—((S)-2-cyclohexyl-2-((S)-3-(6-isopropylbenzo[d]thiazol-2-yl)-2-propionamidopropanamido)ethyl)piperidine-4-carboxamide] | 25.9 nM | 
23 | CCC(=O)N[C@@H](Cc1nc2ccc(Cl)cc2s1)C(=O)N[C@H](C(=O)N[C@@H](CCCCN)C(=O)NC(c1ccccn1)c1ccccn1)C1CCOCC1 [244 & 245] | 297 nM | 
24 | CCC(=O)N[C@H](CNC(=O)C1(N)CCC(F)(F)CC1)Cc1nc2ccc(C(C)C)cc2s1 [Example 111] |  | > 5000 nM
25 | CCC(=O)N[C@@H](Cc1ccc2ccccc2c1)C(=O)N[C@H](C(=O)N[C@@H](CCCCN)C(=O)N[C@@H]1CCOc2c(Cl)cccc21)C1CCCC1 [Example 166] | 193 nM | 
26 | CCC(=O)N[C@@H](Cc1nc2ccc(Cl)cc2s1)C(=O)N[C@H](C(=O)N[C@@H](CCCCN)C(=O)N[C@@H]1CCCc2ccccc21)C1CCCC1 [Example 32] | 157 nM | 
27 | CC[C@H](C)[C@H](NC(=O)[C@H](Cc1nc2ccc(C(C)C)cc2s1)NC(C)=O)C(=O)N[C@@H](CCCCN)C(N)=O [Example 6, (S)-2-((2S,3 S)-2-((S)-2-acetamido-3-(6-isopropylbenzo[d]thiazol-2-yl)propanamido)-3-methylpentanamido)-6-aminohexanamide] | 632 ± 29 nM | 

Next, values leading:

Row | IC50 [1] | IC50 [2] | Compound
28 | 1200 nM |  | CCC(=O)N[C@H](CNC(=O)[C@@H](N)C1CCCC1)Cc1nc2ccc(Cl)cc2s1 [Example 260]
29 | 69.4 nM |  | CCC(=O)N[C@@H](Cc1nc2ccc(C(C)C)cc2s1)C(=O)N[C@@H](C)C(=O)N[C@@H](CCCCN)C(=O)N[C@@H](CC(C)C)C(N)=O [Example 280] (Propionyl-[Ala(6-iPr-benzothiazol-2-yl)]AKL-NH2)
30 | 596 nM |  | CCC(=O)N[C@@H](Cc1nc2ccc(C)cc2s1)C(=O)N[C@@H](CC1CCNCC1)C(=O)N[C@@H](CCCCN)C(=O)N[C@@H]1CCOc2ccccc21 [Example 178]
31 | 120 nM |  | CCC(=O)N[C@@H](Cc1nc2ccc(Cl)cc2o1)C(=O)N[C@H](C(=O)N[C@@H](CCCCN)C(=O)N[C@@H]1CCOc2ccccc21)C1CCOCC1 [Example 198]
32 | 111 nM |  | CCC(=O)N[C@@H](Cc1nc2ccc(C)cc2s1)C(=O)N[C@@H](C[C@H]1CC[C@H](CN)CC1)C(=O)N[C@@H](CCCCN)C(=O)N[C@@H]1CCOc2ccccc21 [Example 185]
33 | 280 nM |  | CCC(=O)N[C@@H](Cc1nc2ccc(C(C)C)cc2s1)C(=O)N[C@H](C(=O)N[C@@H](CCCCN)C(=O)N[C@@H](CC(C)C)C(N)=O)C1CCOCC1 [Example 2287] (Propionyl-[Ala(6-iPr-benzothiazol-2-yl)][Gly(4-THP)]KL-NH2)
34 | 3450 nM |  | CCC(=O)N[C@H](CNC(=O)Cc1ccccn1)Cc1nc2ccc(Cl)cc2s1 [Example 257]
35 | 517 nM |  | CC[C@H](C)[C@H](NC(=O)[C@H](Cc1nc2ccc(C(C)C)cc2s1)NC(=O)CC(C)C)C(=O)N[C@@H](CCCCN)C(=O)N[C@@H](CC(C)C)C(N)=O [Example 277] (Isovaleryl-[Ala(6-iPr-benzothiazol-2-yl)]IKL-NH2)
36 | 1510 nM |  | CCC(=O)N[C@@H](Cc1nc2ccc(Cl)cc2s1)C(=O)N[C@H](C(=O)N[C@@H](CCCCN)C(=O)NCc1ccncc1)C1CCOCC1 [Example 243]
37 | 375 nM |  | CCC(=O)N[C@@H](Cc1nc2ccc(C)cc2s1)C(=O)N[C@H](C(=O)N[C@@H](CCCCN)C(=O)N[C@@H]1CCOc2ccccc21)C(C)(C)O [Example 182]
38 | 858 nM |  | CCC(=O)N[C@@H](Cc1nc2ccc(Br)cc2s1)C(=O)N[C@H](CN)Cc1ccccc1 [Example 222]
39 | 155 nM |  | CC(C)c1ccc2nc(C[C@H](NC(=O)C3CC3)C(=O)N[C@H](CN)C3CCCCC3)sc2c1 [Example 262]
40 | 42.9 nM |  | CCC(=O)N[C@@H](Cc1nc2ccc(C(C)C)cc2s1)C(=O)N[C@H](C(=O)N[C@@H](CCCCN)C(=O)N[C@@H]1CCOc2ccccc21)C1CCOCC1 [Example 206]
41 | 93.8 nM |  | CCC(=O)N[C@@H](Cc1nc2ccc(C)cc2o1)C(=O)N[C@H](C(=O)N[C@@H](CCCCN)C(=O)N[C@@H]1CCOc2ccccc21)C1CCOCC1 [Example 194]
42 |  | > 10000 nM | CCC(=O)N[C@@H](Cc1nc2ccc(C(C)C)cc2s1)C(=O)N[C@H](C(=O)N[C@@H](CCCCN)C(=O)N[C@@H](CC(C)C)C(N)=O)C1CCNCC1 [Example 288] (Propionyl-[Ala(6-iPr-benzothiazol-2-yl)][Gly(piperidin-4-yl)]KL-NH2)
43 | 121 nM |  | CCC(=O)N[C@@H](Cc1nc2ccc(Cl)cc2s1)C(=O)N[C@H](C(=O)N[C@@H](CCCCN)C(=O)N[C@@H]1CCOc2cccc(Cl)c21)C1CCCC1 [Example 172]
44 | 1210 nM |  | CCC(=O)N[C@@H](Cc1nc2ccc(C(C)C)cc2s1)C(=O)N[C@H](CNC(=O)c1ncc[nH]1)C1CCCCC1 [Example 268]
45 | 278 nM |  | CNC(=O)N[C@@H](Cc1nc2ccc(Cl)cc2s1)C(=O)N[C@H](C(=O)N[C@@H](CCCCN)C(=O)N[C@@H]1CCOc2ccccc21)C1CCOCC1 [Example 209]
46 | 2140 nM |  | CCC(=O)N[C@H](CNC(=O)c1ccccn1)Cc1nc2ccc(Cl)cc2s1 [Example 256]
47 |  | > 5000 nM | CCC(=O)N[C@H](CNC(=O)[C@H](N)C1CCCC1)Cc1nc2ccc(Cl)cc2s1 [Example 261]
48 |  | > 10000 nM | CCC(=O)N[C@@H](Cc1nc(C)c(-c2cccnc2)s1)C(=O)N[C@H](CN)Cc1ccccc1 [Example 229]
49 | 37.4 nM |  | CCC(=O)N[C@@H](Cc1nc2ccc(C(C)C)cc2s1)C(=O)N[C@@H](CC)C(=O)N[C@@H](CCCCN)C(=O)N[C@@H](CC(C)C)C(N)=O [Example 281] (Propionyl-[Ala(6-iPr-benzothiazol-2-yl)][Abu]KL-NH2)
